Experimental findings from paper PMC11898654, “The Na^+-K^+-ATPase alpha subunit is an entry receptor for white spot syndrome virus” (mBio, 2025) are described below.

For assay [1], the system named is WSSV. Kind of assay: Endocytic inhibitors injected into shrimp, WSSV entry and replication in hemocytes. Type of assay: in vivo, White spot syndrome virus. The conditions noted are these: shrimp injected with inhibitor before WSSV; for effect on WSSV entry and replication in shrimp hemocytes: qPCR and flow cytometry, entry 4 h, replication 24 h post-infection. The protocol:
Given that viruses enter host cells by exploiting various endocytic pathways, such as clathrin-mediated endocytosis, caveolin-mediated endocytosis, and macropinocytosis ([31]), we went on to examine which of these endocytic pathways is used by WSSV to enter hemocytes. […].
Fig. S5 WSSV entry into shrimp hemocytes through multiple endocytic pathways. (A-F) Identification of endocytic pathways triggered by WSSV. Shrimps were injected with either WSSV or PBS (negative control), and hemocytes were harvested 4 hours post-infection. Hemocytes were incubated with endocytic markers TFN-AF555, CTB-AF555, and DTN-AF568, and uptake rates were analyzed by flow cytometry. Panels (A-C) display representative flow cytometry images for the uptake of TFN-AF555, CTB-AF555, and DTN-AF568, respectively. Quantified uptake rates from three independent experiments are shown in panels (D-F). (G-J) Impact of endocytic inhibitors on WSSV entry. Shrimps were injected with the inhibitors CPZ, GEN, or AMR, and hemocytes were collected 2 hours later for cytotoxicity analysis using the CCK8 kit (G). FITC-labeled or unlabeled WSSV particles were subsequently injected, and hemocytes were harvested 4 hours post-infection for flow cytometry (H) and qPCR (J) to assess WSSV entry. Data from three independent flow cytometry assays are presented in panel (I). (K) Effect of endocytic inhibitors on WSSV replication. Shrimps were injected with WSSV particles following inhibitor treatment, and hemocytes were collected 24 hours post-infection for WSSV copy number quantification via qPCR. Statistical significance was determined using a two-tailed Student’s t-test. * P < 0.05, ** P < 0.01, and *** P < 0.001.
Background: Real-time PCR tracks product formation cycle by cycle.

Assay [2] concerns WSSV. Kind of assay: Endocytic inhibitor treatment, WSSV entry in PvATP1A-overexpressing PAC2 cells. The format is cell-based, White spot syndrome virus. The conditions noted are these: 5 µM inhibitor pre-treatment 30 min, WSSV MOI = 0.1 for 1 h, qPCR, compared with cells treated with CPZ. The protocol: Endocytic inhibitors, chlorpromazine hydrochloride (CPZ, Cat. No. HY-B0407A), genistein (GEN, Cat. No. HY-14596), and amiloride hydrochloride (AMR, Cat. No. HY-B0285A), were purchased from MedChemexpress. Zebrafish PAC2 fibroblast cells were transfected with either the PvATP1A expression plasmid (pEGFP-N1-PvATP1A) or the control plasmid pEGFP-N1. Forty-eight hours post-transfection, cells expressing pEGFP-PvATP1A were pre-treated with 5 µM of each endocytic inhibitor (CPZ, GEN, and AMR) or DMSO (as a control) for 30 min. Following pre-treatment, cells were infected with WSSV (MOI = 0.1) for 1 h. The cells were then washed thrice with PBS, and DNA was extracted for quantification of WSSV copy numbers using qPCR. Cytotoxicity of the endocytic inhibitors on PAC2 cells was assessed using the CCK8 kit (Beyotime, China, Cat. No. C0037), following the manufacturer’s instructions.

Assay [3] concerns the target WSSV VP28 protein (White spot syndrome virus, UniProt Q9ICB7). The format is binding. The conditions noted are these: SPR, different concentrations of the synthetic peptides. As to the method: SPR experiments were conducted using a Biacore T200 system (GE Healthcare, USA). […] Regeneration of the sensor chip was performed by injecting glycine (pH 3.0) for 30 s at a flow rate of 30 µL/min. The Biacore Insight Evaluation Software application was utilized to analyze the association and dissociation rates using a steady state affinity analysis, and the equilibrium dissociation constant (KD) was determined as the ratio of the dissociation rate to the association rate.

Structures can show the parent of a compound that is named as a salt.

For `N=C(N)NC(=O)c1nc(Cl)c(N)nc1N` [AMR, amiloride hydrochloride], the “effect on WSSV entry and replication in shrimp hemocytes” value (“effect on WSSV entry and replication” below) in assay [1] was “inhibited WSSV entry and replication”. Besides, the “WSSV entry, viral copy numbers in PvATP1A-overexpressing cells” value in assay [2] is recorded as “significantly decreased viral copy numbers”.

With `CN(C)CCCN1c2ccccc2Sc2ccc(Cl)cc21` [CPZ, chlorpromazine hydrochloride], in assay [1], the “effect on WSSV entry and replication” value was “inhibited WSSV entry and replication”.

Take MVSKGEELFT [pEGFP]: the “change in response units (RU) of the VP28-coated chip” value in assay [3] is reported as “no changes in the response units”.

For `O=c1c(-c2ccc(O)cc2)coc2cc(O)cc(O)c12` [GEN, genistein], in assay [1], the “ranking among the endocytic inhibitors for virus entry” value was “most potent inhibitors of virus entry”; the “effect on WSSV entry and replication” value is “inhibited WSSV entry and replication”. In assay [2], the “WSSV entry, viral copy numbers in PvATP1A-overexpressing cells” value is recorded as “significantly decreased viral copy numbers”.
